Key:
protein S (S:D614G) = protein S (S:D614G) (Severe acute respiratory syndrome coronavirus 2, UniProt P0DTC2, D614G); design: species or system SARS-CoV-2
[1] = biological target: SWuhan (SARS-CoV-2 S protein HexaPro, Wuhan-Hu-1 variant) (Severe acute respiratory syndrome coronavirus 2, UniProt P0DTC2, A892P/A899P/A942P/F817P/K986P/V987P); format: binding; conditions: read-out: K D values SWuhan
[2] = biological target: RBDWuhan (SARS-CoV-2 spike RBD, Wuhan-Hu-1 variant) (Severe acute respiratory syndrome coronavirus 2, UniProt P0DTC2); format: binding; conditions: read-out: K D values RBDWuhan
[3] = biological target: SBA.1 (SARS-CoV-2 S protein, Omicron BA.1 variant) (Severe acute respiratory syndrome coronavirus 2, UniProt P0DTC2, A67V/D614G/D796Y/DEL143-145/DEL211-211/DEL69-70/E484A/G142D/G339D/G446S/G496S/H655Y/INS214EPE/K417N/L212I/L981F/N440K/N501Y/N679K/N764K/N856K/N969K/P681H/Q493R/Q498R/Q954H/S371L/S373P/S375F/S477N/T478K/T547K/T95I/Y505H, form not given); format: binding; conditions: read-out: K D values SBA.1
[4] = biological target: RBDBA.1 (SARS-CoV-2 spike RBD, Omicron BA.1 variant) (Severe acute respiratory syndrome coronavirus 2, UniProt P0DTC2, E484A/G339D/G446S/G496S/K417N/N440K/N501Y/Q493R/Q498R/S371L/S373P/S375F/S477N/T478K/Y505H); format: binding; conditions: read-out: K D values RBDBA.1

With `CCCCCCCCc1ccc(CCC(N)(CO)CO)cc1` [fingolimod] the “architecture of spikes by negative-stain electron microscopy” value (protein S (S:D614G)) was “do not damage the architecture of the proteins”.
catechin was tested, and the Kd [1] was 927 ± 76 µM, the Kd [2] was greater than 1000 µM and the Kd [3] was greater than 1000 µM. For the same molecule, the Kd [4] was greater than 1000 µM.
